Data on 3 compounds can be found in US11331268B2, “Taste masking product” (The University of Western Australia, priority 2016, dated 2022).

Structures are written as SMILES. Counter-ions that a name gives are not always drawn. Like-named read-outs stand apart in the source and are kept apart here.

A word on the IC50: it is the concentration that inhibits the measured activity by half.

For data set [1] the following is noted: cited from earlier work.
The conditions of data set [2]: cited from earlier work. This is another data set of the same source.
Data set [3] deals with Sprague Dawley rats. Briefly: Rat Brief-Access Taste Aversion (BATA) model. The format is in vivo. The method, then: The rat ‘Brief-Access Taste Aversion’ (BATA) model was used to assess the taste of the midazolam chocolate tablet formulation relative to control samples. Ten male Sprague Dawley rats (average weight […]) previously trained for the experiments were used and two independent tasting evaluations were conducted over 2 days.
Prior to the experiments, the rats were water-deprived for 22 hours but had access to food ad libitum. Each rat was placed into the Lickometer Davis Rig MS-160 (DiLog Instruments, Tallahassee, Fla., USA) for a 40-minute session where it would be presented with 16 sipper tubes mounted on a moving rack controlled by the Davis Collect Data software. The taste samples were each presented to the rat for 8 seconds, in a random order specified by the computer program. Over the 40-minute session, a sample would have been presented to the rat four times, with a 2-second water rinse given between samples. As the rats licked on the sipper, the number of licks was recorded electronically and transmitted to a database on a computer.
The 5 mg midazolam HCl chocolate tablets were assessed against control samples, which included deionized water, vehicle (water adjusted to pH 5 with HCl), 1 mg/mL solution of midazolam in the vehicle, a 2.5 mg/mL oral midazolam syrup manufactured by AUSPMAN, and chocolate placebo tablets. Simulating the advice to patients to chew the chocolate tablet and then swallow, the placebo and midazolam-loaded chocolate tablets were prepared for the taste evaluation by grinding each chocolate tablet in 2 mL of water, which mimics the volume of saliva, using a mortar and pestle. The resultant liquid preparations were then presented to the rats. […]
Aversion to the taste of a sample was indicated by a significant reduction in the number of licks when the sample was presented to the rats. […] Data was analysed using the RStudio software (https://www.rstudio.com) and applying the non-parametric Kruskal Wallis test with post-hoc Tukey's test for paired comparisons.

In the case of `Cc1ncc2n1-c1ccc(Cl)cc1C(c1ccccc1F)=NC2` [Midazolam, midazolam], the solubility in water in data set [1] (low pH) is greater than 2.5 mg/mL; in data set [1] (pH>5) it was “less than 0.1 mg/ml”.

Consider `COc1cccc(C2(O)CCCCC2CN(C)C)c1` (stereo not drawn) [tramadol HCl, tramadol hydrochloride], for which, in data set [2], the “solubility in aqueous media” value is no more than 2 mg/mL.

As to `Cc1ncc2n1-c1ccc(Cl)cc1C(c1ccccc1F)=NC2` [midazolam HCl, midazolam hydrochloride], the IC50 in data set [3] (Rattus norvegicus, midazolam HCl standard solutions in vehicle (water pH 5), n=2, read-out: IC50 (dose-response of number of licks)) is 300 ± 290 µg/mL. Further, in data set [3] (rodent model), the “detection threshold for the bitter taste” value is recorded as “about 0.03 mg/ml”. Besides, the “concentration receiving comparable numbers of licks to blank vehicle” value in data set [3] (standard solutions in vehicle) is on record as “up to 0.03 mg/mL”.
